According to patent publication US20250041264A1, “METHOD FOR TREATING DIABETES BY USING ANTRODIA CAMPHORATA COMPOUND” (Lantyng Biotechnology Corp., priority 2023, published 2025):
Entries after “also recorded” stand apart in the source; their conditions may differ.

Key:
Type 2 Diabetic Mice [1] = assay: Oral glucose tolerance test (OGTT), final week (16th week), high-fat-diet type 2 diabetic mice; format: in vivo, mice C57BL/6JNarl; conditions: for average blood sugar at 120 minutes (OGTT): n=6, 120 minutes
Experimental: This experiment uses four-week-old male mice C57BL/6JNarl from National Laboratory Animal Center (Taipei, Taiwan), and they were bred with 12 hours of light/dark cycle under the environment of 23° C.±2° C. Mice were adapted to feed water and food arbitrarily every week, and after one week, they were fed in groups from the commercial feed 1320 (containing 11% fat) purchased from EJOY2 CORP. (New Taipei City, Taiwan) and D12451 (containing 45% high-fat feed) purchased from […] CO., LTD. (Taichung, Taiwan), induced for 12 weeks. During the experiment, the body weight of the mice and the fasting blood sugar value were measured every week and their changes were recorded. The mean±3SD of fasting blood sugar in mice was calculated. If the fasting blood sugar value exceeds the mean±3SD of the normal diet group, tube feeding administration would be started for 4 weeks, and blood sugar tolerance would be tested by tail vein blood collection in the last week of the experiment. […] Referring to FIGS. 1-2, they show the test results of oral glucose tolerance test (OGTT), respectively. Group A (NFD), Group B (NFD+5), Group C (NFD+20), Group D (HFD), Group E (HFD+5), Group F (HFD+10), Group G (HFD+20), Group H (Glibenclamide). NFD refers to normal fat diet, HFD refers to high fat diet, and Glibenclamide is an oral hypoglycemic drug that belongs to type 2 (non-insulin dependent) diabetic patients.

Type 2 Diabetic Mice [2] = assay: ALT and AST biochemical analysis in blood (liver function); format: in vivo; conditions: later stage of treatment (4 weeks), Hitachi 7080 blood biochemical analyzer
Experimental: Mice were adapted to feed water and food arbitrarily every week, and after one week, they were fed in groups from the commercial feed 1320 (containing 11% fat) purchased from EJOY2 CORP. (New Taipei City, Taiwan) and D12451 (containing 45% high-fat feed) purchased from MEDGENE CO., LTD. (Taichung, Taiwan), induced for 12 weeks.
On the last day of the experiment, all animals (except for unplanned deaths) were fasted for 20 hours at the National Laboratory Animal Center and euthanized with pure carbon dioxide, followed by necropsy, organ weight (liver) and gross examination, including evaluation of liver and pancreas. Most lesions of animals were recorded at the time of final sacrifice, including scheduled euthanasia and unscheduled deaths. […]

Type 2 Diabetic Mice [3] = assay: Low-density lipoprotein (LDL) detection; format: in vivo, mice C57BL/6JNarl; conditions: HFD+5 group (SY1 5 mg/kg) compared with Western medicine group and HFD+10

| Compound | fasting blood sugar when no sugar water was fed (OGTT, 16th week) (Type 2 Diabetic Mice [1]; HFD, Glibenclamide 5 mg/kg, after 4 weeks of drug treatment) | effect on lowering blood sugar in the later stage of treatment (Type 2 Diabetic Mice [1]; HFD, Glibenclamide 5 mg/kg, after 4 weeks of drug treatment, compared with SY1) | liver function index (AST, ALT in blood) (Type 2 Diabetic Mice [2]) | hypoglycemic effect compared with other groups (OGTT) (Type 2 Diabetic Mice [1]; HFD+5 group (SY1 5 mg/kg) versus HFD+10, HFD+20 and Glibenclamide groups, 5 mg/kg) | average blood sugar at 120 minutes (OGTT) (Type 2 Diabetic Mice [1]; HFD+5 group (high fat diet, SY1 5 mg/kg, tube feeding 4 weeks)) | effect on lowering blood sugar 30 minutes after feeding sugar water (OGTT) (Type 2 Diabetic Mice [1]; HFD+5 low-dose group (SY1 5 mg/kg)) | average blood sugar at 120 minutes (OGTT) (Type 2 Diabetic Mice [1]; HFD+10 group (high fat diet, SY1 10 mg/kg, tube feeding 4 weeks)) | effect on lowering blood sugar 30 minutes after feeding sugar water (OGTT) (Type 2 Diabetic Mice [1]; HFD+10 middle-dose group (SY1 10 mg/kg)) | effect on lowering LDL (Type 2 Diabetic Mice [3]) |
| --- | --- | --- | --- | --- | --- | --- | --- | --- | --- |
| COc1ccc(Cl)cc1C(=O)NCCc1ccc(S(=O)(=O)NC(=O)NC2CCCCC2)cc1 [Glibenclamide, reference compound] | higher fasting blood sugar increase than any other group | worse than that of SY1 | increased and reached a significant difference |  |  |  |  |  |  |
| COc1cc(C)c(OC)c2c1OCO2 [SY1, 4,7-dimethoxy-5-methyl-1,3-benzodioxole] |  |  | this phenomenon was not seen | equivalent to that of the HFD+10 group; also recorded: more obvious than the high-dose HFD+20 and hypoglycemic drug Glibenclamide group | 155.83 | obvious effect on lowering blood sugar | 155.33 | obvious effect on lowering blood sugar | not much different from that of the Western medicine group; also recorded: better than HFD+10 |
